Peptide text beside a SMILES is read from it. * marks the point of attachment. 5TAMRA = CN(C)c1ccc2c(c1)Oc1cc(N(C)C)ccc1C21OC(=O)c2cc(C(=O)*)ccc21
Experiments:
[1] = tested on: bovine BCEC monolayers co-cultured with rat astrocytes; assay: Transport, membrane adherence and cell uptake quantified by TAMRA fluorescence (bovine model); format: in vitro ADME; details: 3 h, 37 °C, N = 2-3, n = 3; for peptide adhering to the cell surface / peptide taken up by the cells (endothelial cells and astrocytes): 100 µM peptide, TAMRA fluorescence 542/568 nm, mean ± SEM; for peptide adhering to the cell surface: acetic acid buffer pH 3 wash fraction; for peptide taken up by the cells (endothelial cells and astrocytes): lysate fraction; for peptide transported across the barrier (abluminal content): 100 µM peptide luminal, 90 rpm, medium with 10% FBS, abluminal TAMRA fluorescence, compared to TAMRA-NR2B9c
Procedure: Transport across bovine or mouse BCEC monolayers co-cultured with rat astrocytes was carried out over 3 h at 37 °C with horizontal shaking (90 rpm). TEER was measured at room temperature using an Endohm 12 cup (World Precision Instruments, Sarasota, FL, USA) connected to a Millicell-ERS device (Millipore, Bedford, MA, USA). TEER was measured before application of the peptides and after each experiment. The bovine model had initial TEER values ranging from 771 to 1332 Ω·cm^2, whereas the mouse model had initial TEER values ranging from 136 to 217 Ω·cm^2.
TAMRA fluorescence was measured using a NovoStar fluorescence plate reader (BMG Labtech, Offenburg, Germany) with excitation/emission set to 542/568 nm. The transported peptide was calculated using standard curves ranging from 31 nM to 2 µM. All peptide standard curves were subjected to 3 h of incubation at 37 °C with horizontal shaking (90 rpm) in differentiation media withdrawn from BCECs co-cultured with rat astrocytes.
Two filters from each BCEC batch were subjected to quantification of the TAMRA-peptide adhering to the BCEC plasma membrane and peptide taken up by the BCECs and astrocytes. […] The peptide solutions were removed from the cells and the filters washed thrice with 37 °C hHBSS. To isolate the peptide fraction adhering to the plasma membrane, the BCECs were placed on ice and incubated with 300 µL ice-cold acetic acid buffer ([…], 1% BSA, pH 3) for 5 min. The acetic acid buffer solution was gently pipetted up and down twice prior to collection of 100 µL samples into a black clear-bottom 96-well plate for analysis. The remaining acetic acid buffer solution was removed from the luminal chamber and the cells washed thrice with ice-cold hHBSS. To isolate the peptide fraction being taken up by the BCECs and astrocytes, the filter inserts were cut out and 150 µL of ice-cold lysis buffer (10 mM Tris-HCl, 0.25 M sucrose, 1 mM EDTA, 1 mM ethylene-bis(oxyethylenenitrilo)tetraacetic acid tetrasodium (EGTA), 2% Tergitol™, Complete® inhibitor tablet) added prior to incubation for 10 min on ice. The cells were homogenized using a pellet pestle (Merck, St. Louis) and subjected to centrifugation at 10,000× g at 4 °C for 10 min. The 100 µL supernatant was transferred into a black clear-bottom 96-well plate. TAMRA fluorescence was measured using a NovoStar fluorescence plate reader (BMG Labtech, Offenburg, Germany) with excitation/emission set to 542/568 nm. The molar amount of membrane-adhered peptide and peptide taken up by the cells was calculated using standard curves freshly prepared in acetic acid buffer and lysis buffer, respectively, in concentrations ranging from 40 nM to 2.5 µM.

blood–brain barrier = assay: In vivo two-photon imaging of BBB permeation; details: 3 nmol peptide/g body weight via femoral artery, 1 h, mean ± SEM, N = 5; for BBB permeation: AUC of change in TAMRA fluorescence in the brain parenchyma: anesthetized C57BL/6 mice, two-photon imaging; for clearance: AUC of decreased fluorescence in the blood stream: blood vessel ROIs
Procedure: Animals and operational procedure: We used 12–14-week-old C57BL/6 mice (24–26 g) and performed the surgical procedures as described previously. Anesthesia was induced by intraperitoneal (i.p.) injection of xylazine (10 mg/kg body weight; ScanVet, Fredensborg, Denmark) and ketamine (60 mg/kg body weight; MSD Animal Health, København, Denmark), and maintained by supplementary i.p. injections of ketamine (30 mg/kg body weight) every 20–25 min. The trachea was surgically exposed, and a custom-made metal tube inserted into the trachea lumen for mechanical respiration (180–220 μL volume; 190–240 strokes/min) with oxygen-supplemented air (1.5–2 mL/min) using a MiniVent Type 845 ventilator (Harvard Apparatus, Holliston, MA, USA). Catheters were inserted into the femoral vein and the femoral artery. The incisions were closed with surgical staples. After cannulation, the animal was placed in a prone position. The scalp was removed and FeCl3 (0.62 M) administered to clean off the periosteum. The exposed skull was subsequently washed with saline, dried, and attached to a custom-made metal plate using a cyanoacrylate gel (Henkel’s LOCTITE®, Düsseldorf, Germany). The animal head was mounted onto the imaging stage insert and craniotomy performed using a dental drill (7000 rpm; 4 mm lateral and 1 mm posterior to bregma, Ø = 3 mm). The bone flap and dura were carefully removed, and the surface of the brain gently washed with artificial cerebrospinal fluid (120 mM NaCl, 2.8 mM KCl, 1 mM Na2HPO4, 0.876 mM MgCl2, 22 mM NaHCO3, 1.45 mM CaCl2, 2.55 mM glucose, pH 7.4, 37 °C, 5% CO2). We applied 1% type III-A agarose to the brain surface, and a Menzel glass coverslip (4 × 4 mm, 0.08-mm thick; Thermo Fischer Scientific, Bedford, MA, USA) was positioned to seal the major part of the craniotomy, leaving only an opening for the glass microelectrode used in the electrophysiological assessment. The mouse was transferred to the imaging stage. Following the insertion of the glass microelectrode, the anesthesia was switched to α-chloralose administered intravenously at a constant flow of 50 mg/kg body weight/hour. The mouse was left for 25 min for anesthesia equilibration before imaging. During all procedures, the animal was maintained at 37 °C using a YSI-451rectal thermistor probe (E-Z Systems, Palmer, PA, USA) with a TC-1000 Mouse Proportional controlling unit connected to a heating pad (08-13013; CWE Incorporated, Palmer, PA, USA). To ensure optimal animal physiology and level of anesthesia, end-tidal respiratory CO2 was measured using a Capnograph Type 340 (Harvard Apparatus, Holliston, MA, USA), and mean arterial blood pressure was monitored using a BP-1 pressure monitor (World Precision Instruments, Sarasota, FL, USA).
Imaging of BBB permeation: TAMRA-Tat, TAMRA-Tat-NR2B9c, and TAMRA-Tat-N-dimer were administered as 60 µL bolus injections via the catheter inserted into the femoral artery (3 nmol/g body weight). […] The imaging was performed using an SP5 upright laser scanning microscope equipped with a 20 × 1.0 N.A. water-immersion objective (Leica Microsystems, Wetzlar, Germany). Images were obtained in a hyperstack mode, i.e., in a series of Z-stacks in 1-min intervals. Each Z-stack underwent a reduction of dimensionality (maximum signal intensity projection along the Z-axis). TAMRA and FITC were excited with a Millennia Pro MaiTai HP Ti:Sapphire two-photon laser (Spectra Physics, Santa Clara, CA, USA) tuned to 870 nm. The signal was acquired by two multi-alkali NDD photomultipliers after 525–560 and 560–625 nm band pass filters for FITC-dx and TAMRA fluorescence, respectively. Data were exported from LAS AF software (v. 4.4, Leica Microsystems, Wetzlar, Germany) to ImageJ v. 1.48u4 (NIH).

Compound | peptide adhering to the cell surface [1] | peptide taken up by the cells (endothelial cells and astrocytes) [1] | peptide transported across the barrier (abluminal content) [1] | BBB permeation: AUC of change in TAMRA fluorescence in the brain parenchyma (blood–brain barrier) [F/F0 min] | clearance: AUC of decreased fluorescence in the blood stream (blood–brain barrier) [F/F0 min]
CC[C@H](C)[C@H](NC(=O)[C@H](CO)NC(=O)[C@H](CO)NC(=O)[C@H](CC(C)C)NC(=O)[C@H](CCCCN)NC(=O)c1ccc2c(c1)C(=O)OC21c2ccc(N(C)C)cc2Oc2cc(N(C)C)ccc21)C(=O)N[C@@H](CCC(=O)O)C(=O)N[C@@H](CO)C(=O)N[C@@H](CC(=O)O)C(=O)N[C@H](C(=O)O)C(C)C [TAMRA-NR2B9c] (5TAMRA-KLSSIESDV-OH) | Minute amounts | Minute amounts |  |  | 
CC[C@H](C)[C@H](NC(=O)CCOCCOCCN(CCOCCOCCC(=O)N[C@H](C(=O)N[C@@H](CCC(=O)O)C(=O)N[C@H](C(=O)N[C@@H](CC(=O)O)C(=O)N[C@H](C(=O)O)C(C)C)[C@@H](C)O)[C@@H](C)CC)C(=O)[C@H](CCCNC(=N)N)NC(=O)[C@H](CCCNC(=N)N)NC(=O)[C@H](CCCNC(=N)N)NC(=O)[C@H](CCC(N)=O)NC(=O)[C@H](CCCNC(=N)N)NC(=O)[C@H](CCCNC(=N)N)NC(=O)[C@H](CCCCN)NC(=O)[C@H](CCCCN)NC(=O)[C@H](CCCNC(=N)N)NC(=O)CNC(=O)[C@H](Cc1ccc(O)cc1)NC(=O)c1ccc2c(c1)C(=O)OC21c2ccc(N(C)C)cc2Oc2cc(N(C)C)ccc21)C(=O)N[C@@H](CCC(=O)O)C(=O)N[C@H](C(=O)N[C@@H](CC(=O)O)C(=O)N[C@H](C(=O)O)C(C)C)[C@@H](C)O [TAMRA-Tat-N-dimer] | Minute amounts | Minute amounts | No significant difference | 6.90 ± 3.90 | −15.02 ± 0.55
CN(C)c1ccc2c(c1)Oc1cc(N(C)C)ccc1C21OC(=O)c2cc(C(=O)N[C@@H](Cc3ccc(O)cc3)C(=O)NCC(=O)N[C@@H](CCCNC(=N)N)C(=O)N[C@@H](CCCCN)C(=O)N[C@@H](CCCCN)C(=O)N[C@@H](CCCNC(=N)N)C(=O)N[C@@H](CCCNC(=N)N)C(=O)N[C@@H](CCC(N)=O)C(=O)N[C@@H](CCCNC(=N)N)C(=O)N[C@@H](CCCNC(=N)N)C(=O)N[C@@H](CCCNC(=N)N)C(=O)O)ccc21 [TAMRA-Tat] | Significantly larger amounts | Significantly larger amounts | to a greater extent than TAMRA-NR2B9c | 32.21 ± 10.17 | −17.85 ± 1.71
CC[C@H](C)[C@H](NC(=O)[C@H](CO)NC(=O)[C@H](CO)NC(=O)[C@H](CC(C)C)NC(=O)[C@H](CCCCN)NC(=O)[C@H](CCCNC(=N)N)NC(=O)[C@H](CCCNC(=N)N)NC(=O)[C@H](CCCNC(=N)N)NC(=O)[C@H](CCC(N)=O)NC(=O)[C@H](CCCNC(=N)N)NC(=O)[C@H](CCCNC(=N)N)NC(=O)[C@H](CCCCN)NC(=O)[C@H](CCCCN)NC(=O)[C@H](CCCNC(=N)N)NC(=O)CNC(=O)[C@H](Cc1ccc(O)cc1)NC(=O)c1ccc2c(c1)C(=O)OC21c2ccc(N(C)C)cc2Oc2cc(N(C)C)ccc21)C(=O)N[C@@H](CCC(=O)O)C(=O)N[C@@H](CO)C(=O)N[C@@H](CC(=O)O)C(=O)N[C@H](C(=O)O)C(C)C [TAMRA-Tat-NR2B9c] (5TAMRA-YGRKKRRQRRRKLSSIESDV-OH) | Significantly larger amounts | Significantly larger amounts | to a greater extent than TAMRA-NR2B9c | 5.54 ± 2.95 | −4.97 ± 1.26

Reference: article PMC7408072 (Pharmaceutics, 2020)
